Laboratory results as given in US8193235B2, “Compositions and methods for establishing and maintaining stem cells in an undifferentiated state” (University of Kansas, priority 2009, dated 2012).
“Also recorded” adds a separate entry of the source.

Assays:
PKC μ = PKC μ (Homo sapiens, UniProt Q15139); conditions: higher concentrations; cited from earlier work
C57BL/6 blastocysts = assay: Chimera generation and germ-line transmission by blastocyst injection; type: in vivo, mouse
Experimental: Chimera Generation and Germ-Line Transmission. Prepubertal (3 weeks of age) donor C57BL/6 female mice (Jackson Laboratory, Bar Harbor, Me.) were superovulated, mated overnight to intact C57BL/6 stud males and euthanized by cervical dislocation on day 3.5. Uteri were collected after euthanasia and flushed with M2 medium (Millipore, Bilerica, Mass.) for the collection of blastocysts. Eight to ten ES or iPS cells were injected into the blastocoel of each blastocyst. After injection, the blastocysts were surgically transferred into recipient females that were pseudopregnant by mating with vasectomized males. Recipient females carried the pups to term and nursed until weaning at three weeks. High-level chimeras, generated from newly derived ES cells, were mated with C57BL/6 adult mice to test for germline transmission.

[1] = system: canonical Wnt reporter (TOPFLASH reporter); assay: TOPFLASH luciferase reporter assay; type: cell-based, mouse; conditions: mESCs
Experimental: TOPFLASH Luciferase Reporter Assay. […] were transfected with 0.5 μg of SUPER8XTOPFlash and 20 ng of phRL Renilla luciferase vectors per well using LIPOFECTAMINE (Invitrogen). Transfected cells were cultured with or without LIF, or Wnt3a-conditioned medium, or with Gö6983, and luciferase activity was measured after 48 hours of transfection using Dual-Luciferase Reporter Assay System (Promega).

E14 ES cells = assay: ES cell culture in the absence of LIF (undifferentiated state, marker expression); type: cell-based, mouse
Experimental: E14 ES Cell Cultures. Cells were grown in ES-IMDM media (Lonza, Walkersville, Md.) in a feeder-free condition. ES-IMDM was supplemented with 15% serum, 10^5 U/100 ml of LIF (ESGRO, Millipore, Calif.) and 0.0124% monothioglycerol (MTG; Sigma Aldrich). Cells were grown for 3-5 days with change of medium every day. For inducing differentiation in monolayer culture and to determine the effect of Gö6983 in preventing differentiation, E14 cells were cultured on gelatin-coated plastics for 8 days without LIF. Details of experiments performed at clonal-density are described herein. To maintain E14 cells with Gö6983, serum supplemented ES-IMDM was used in the presence of 5 μM Gö6983 and was passed after every 3-5 days. For all assays involving elucidation of different signaling mechanism responsible for maintenance of pluripotency, cells from a ˜70% confluent ES culture plate were washed two times with 1× phosphate-buffered saline (PBS), trypsinized and plated on a 6-well tissue culture plate and treated with or without LIF or Gö6983 or different inhibitors for ˜10 hours followed by preparation of protein lysates and RNA. The PKCζ knocked-down E14 cells that were generated in this study were maintained in serum supplemented ES-IMDM on gelatin-coated plates in the absence of Gö6983 or LIF or any other inhibitor and passed after 3-5 days. For the experiments herein, cells were continuously cultured at least for 5 consecutive passages (>18 days) on gelatin-coated plates without significant differentiation.
Quantitative RT-PCR Analysis. RNA was extracted from different cell samples with TRIZOL reagent (Invitrogen). cDNA was prepared by annealing RNA (1 μg) with 250 ng of a 5:1 mixture of random and oligo(dT) primers heated at 68° C. for 10 minutes. This was followed by incubation with Moloney murine leukemia virus reverse transcriptase (50 units) (Invitrogen, Carlsbad, Calif.) combined with 10 mM DTT, RNasin (PROMEGA, Madison, Wis.), and 0.5 mM dNTPs at 42° C. for 1 hour. Reactions were diluted to a final volume of 100 μl and heat inactivated at 97° C. for 5 minutes. Twenty μl PCR reactions contained 2 μl cDNA, 10 μl SYBR Green Master Mix (Applied Biosystems, Foster City, Calif.) and corresponding primer sets. Relative expression levels were determined from a standard curve of serial dilutions of proliferating ES cell cDNA samples and were normalized to the expression of glyceraldehyde-3-phosphate dehydrogenase (GAPDH). At least three independent experiments were done for each set of data.
Immunostaining. Immunostaining of Oct4, and Nanog expression was performed using standard protocols. Briefly, ES cells were fixed in 4% paraformaldehyde/4% sucrose, permeabilized with 0.1% TRITON X 100 (Sigma). Cells were blocked by adding 1% fish gelatin (Sigma, St. Louis, Mo.) and incubated overnight at 4° C. with 200 μl of primary antibodies. Fluorescent-conjugated secondary antibodies (ALEXA FLUOR 488, and ALEXA FLUOR 568, Molecular Probes, Invitrogen) were used at 1:250 dilutions to visualize cells. Images were captured using a LEICA fluorescence microscope.

[2] = system: H3K27me3, EZH2, H3K9Me3, H3K4Me3 at gene loci; assay: Quantitative ChIP assay of chromatin marks; type: cell-based, mouse
Experimental: Quantitative ChIP Assay. Real-time PCR-based quantitative ChIP analysis was performed according to known methods (Dutta, et al. (2008) supra). Proliferating E14 cells (+LIF), ES cells differentiated on Collagen-IV with or without Gö6983 were either trypsinized or collected by using cell-dissociaton buffer and protein-DNA crosslinking was conducted by treating cells with formaldehyde at a final concentration of 1% for 10 minutes at room temperature with gentle agitation. Glycine (0.125 M) was added to quench the reaction. Antibodies against EZH2, SUZ12, H3K27Me3, H3K9Me3, and H3K4Me3 were used to immunoprecipitate protein-DNA crosslinked fragments. Immunoprecipitated DNA was analyzed by real-time PCR (ABI 7500, Applied Biosystem, Foster City, Calif.). Samples from three or more immunoprecipitates were analyzed using a standard curve from sonicated total chromatin (input) samples.

ES cells = assay: Quantitative Clonal Assay (survival at clonal density); type: cell-based, mouse; conditions: ≦10 μM
Experimental: Quantitative Clonal Assay. ES and iPS cells were dissociated into single cells using 0.05% trypsin/EDTA and 2-20 cells were plated on each well of a 96-well culture plate. The cells were cultured for 6-7 days, colonies were stained for Nanog, and the number of Nanog positive colonies was counted. […] This procedure was repeated for five consecutive passages (>30 days).

PKC μ, sequence (Q15139 whole entry): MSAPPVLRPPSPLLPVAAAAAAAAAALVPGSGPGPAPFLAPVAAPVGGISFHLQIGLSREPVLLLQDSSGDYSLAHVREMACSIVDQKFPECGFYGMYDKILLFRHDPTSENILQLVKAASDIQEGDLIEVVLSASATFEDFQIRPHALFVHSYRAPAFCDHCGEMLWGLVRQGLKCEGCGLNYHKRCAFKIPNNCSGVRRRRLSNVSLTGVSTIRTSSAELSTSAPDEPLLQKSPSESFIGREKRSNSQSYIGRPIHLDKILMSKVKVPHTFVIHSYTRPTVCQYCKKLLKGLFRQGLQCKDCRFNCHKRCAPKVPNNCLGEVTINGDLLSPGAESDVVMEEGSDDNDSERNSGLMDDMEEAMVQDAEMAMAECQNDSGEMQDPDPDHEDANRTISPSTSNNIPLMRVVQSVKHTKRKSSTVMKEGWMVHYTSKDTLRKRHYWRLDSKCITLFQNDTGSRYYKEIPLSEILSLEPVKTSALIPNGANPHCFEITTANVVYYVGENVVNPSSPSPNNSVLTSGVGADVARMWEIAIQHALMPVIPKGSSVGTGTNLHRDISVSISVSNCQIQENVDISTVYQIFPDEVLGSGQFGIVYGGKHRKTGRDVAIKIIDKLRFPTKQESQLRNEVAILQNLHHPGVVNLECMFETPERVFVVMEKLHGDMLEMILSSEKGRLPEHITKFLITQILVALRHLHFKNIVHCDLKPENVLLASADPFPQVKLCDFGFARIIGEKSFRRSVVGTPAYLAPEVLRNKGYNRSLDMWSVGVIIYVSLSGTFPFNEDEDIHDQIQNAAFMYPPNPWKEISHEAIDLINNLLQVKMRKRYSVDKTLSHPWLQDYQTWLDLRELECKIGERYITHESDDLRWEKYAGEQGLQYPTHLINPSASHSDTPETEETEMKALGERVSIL

SMILES: COc1ccc2c(c1)c(C1=C(c3c[nH]c4ccccc34)C(=O)NC1=O)cn2CCCN(C)C [Gö6983, 3-[1-[3-(dimethylamino)propyl]5-methoxy-1H-indol-3-yl]-4-(1H-indol-3-yl)-1H-pyrrole-2,5-dione]
- concentration that inhibits isoform PKC μ (PKC μ): > 20 µM
- chimera generation from E14 ES cells maintained with Gö6983 (C57BL/6 blastocysts; 7 passages with Gö6983, injected into C57Bl/6 blastocysts): yielded multiple chimeric mice; also recorded: efficiently generated chimeras
- Chimera # (C57BL/6 blastocysts; E14 cells, 59 blastocysts injected, 7 pups): 5
- # of Chimera showing Germline Transmission (C57BL/6 blastocysts; ES 1 (line derived with Gö6983)): 3
- Chimera # (C57BL/6 blastocysts; ES 1 (line derived with Gö6983), 45 blastocysts injected, 15 pups): 5
- # of Chimera showing Germline Transmission (C57BL/6 blastocysts; ES 2 (line derived with Gö6983)): 2
- Chimera # (C57BL/6 blastocysts; ES 2 (line derived with Gö6983), 38 blastocysts injected, 6 pups): 2
- Chimera # (C57BL/6 blastocysts; iPSC 1, 18 blastocysts injected, 5 pups): 3
- Chimera # (C57BL/6 blastocysts; iPSC 2, 30 blastocysts injected, 6 pups): 3
- chimera generation from Gö6983-derived iPS cells (C57BL/6 blastocysts; injected into blastocysts): generate chimeric mice
- chimera and germline contribution of Gö6983-derived ES cells (C57BL/6 blastocysts; two lines after six passages, chimeras crossed with C57BL/6 adults): successfully generated adult chimera, which produced germline offsprings
- TOPFLASH reporter activity [1]: did not induce
- ES cell differentiation at 2.5 μM (E14 ES cells; 2.5 μM, without LIF): almost completely inhibited
- concentration that efficiently maintained undifferentiated ES cell colony / inhibits mouse ES cell differentiation (E14 ES cells; concentration profile analysis, absence of LIF): ≥ 2.5 µM
- ES cell differentiation in the absence of LIF (E14 ES cells; mouse ES cells, without LIF): did not differentiate and maintained their undifferentiated colony morphology
- induction of developmental genes required for lineage commitment (E14 ES cells; quantitative RT-PCR, FIG. 1B): did not occur
- expression of pluripotency markers Oct4, Nanog, Sox2 and Rex-1 (E14 ES cells; quantitative RT-PCR, without LIF, FIG. 1A): maintained the expression of pluripotency markers
- ES cell pluripotency in media with different batches of fetal bovine serum (E14 ES cells; serum from different sources): maintained ES cell pluripotency in all culture media irrespective of serum source
- H3K4 methylation (H3K4Me3) at Oct4 and Nanog loci [2]: high levels of H3K4 methylation
- H3K9 methylation at the Oct4 and Nanog loci [2]: inhibited H3K9 methylation
- H3K27me3 and EZH2 chromatin occupancy at developmental regulator genes ([2]; mESCs): maintained high levels of H3K27me3 and chromatin occupancy
- loss in ES cell survival at clonal density (ES cells): no significant loss
